One assay has as its target T1, CDK2 (Homo sapiens, UniProt P24941).
T1 construct: endogenous in cells; host or cells: MDA-MB-231
As to the kind of experiment: CDK protein degradation activity (Western blotting), CDK2. The assay is classed as cell-based. The note with it: MDA-MB-231 cells, 16 hours, Western blot. The method, boiled down:
(§1)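 Protein levels were read by Western blot densitometry, tubulin serving as loading reference. Beforehand, MDA-MB-231 cells had been exposed for 16 hours to 100 nM, 1 μM or 10 μM compound, DMSO as control.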
On the technique in general: In western blotting, separated proteins are transferred to a membrane and probed.

Another assay has as its target T2, CDK9 (Homo sapiens, UniProt P50750).
T2 construct: endogenous in cells; host or cells: MDA-MB-231
As to the kind of experiment: CDK protein degradation activity (Western blotting), CDK9. It counts as cell-based. The note with it: MDA-MB-231 cells, 16 hours, Western blot. The method, boiled down: as §1

SMILES strings stand for the structures.

From patent US20260125382A1, “COMPOUNDS FOR INHIBITING OR DEGRADING CDK2 AND/OR CDK9 AND MEDICINAL USE THEREOF” (KOREA RESEARCH INSTITUTE OF CHEMICAL TECHNOLOGY, priority 2022, published 2026) come the findings set out here.

T2 sequence (P50750 whole entry): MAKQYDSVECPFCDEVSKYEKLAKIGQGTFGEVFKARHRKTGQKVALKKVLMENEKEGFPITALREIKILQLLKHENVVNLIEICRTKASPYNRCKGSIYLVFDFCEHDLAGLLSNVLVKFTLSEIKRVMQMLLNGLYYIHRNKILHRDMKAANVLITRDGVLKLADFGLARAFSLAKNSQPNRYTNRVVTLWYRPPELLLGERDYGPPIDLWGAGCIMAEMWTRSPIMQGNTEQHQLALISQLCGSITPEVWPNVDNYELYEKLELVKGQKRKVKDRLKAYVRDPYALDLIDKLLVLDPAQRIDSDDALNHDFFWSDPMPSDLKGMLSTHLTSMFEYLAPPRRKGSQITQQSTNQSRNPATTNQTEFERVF

`O=C1CC[C@H](N2C(=O)c3cc(F)c(N4CCC(CN5CCC(CCNc6ncnc7c6ncn7[C@H]6C[C@@H](NC(=O)c7c(Cl)cccc7Cl)C6)CC5)CC4)cc3C2=O)C(=O)N1` [Compound 397, 2,6-dichloro-N-((1s,3s)-3-(6-((2-(1-((1-(2-(2,6-dioxopiperidin-3-yl)-6-fluoro-1,3-dioxoisoindolin-5-yl)piperidin-4-yl)methyl)piperidin-4-yl)ethyl)amino)-9H-purin-9-yl)cyclobutyl)benzamide]: at CDK2, the “Enzyme degradation CDK2 (% remaining) @ 0.1 μM” value was found to be 50%, the “Enzyme degradation CDK2 (% remaining) @ 1 μM” value is reported as 30% and the “Enzyme degradation CDK2 (% remaining) @ 10 μM” value stood at 30%. Besides, on CDK9, the “Enzyme degradation CDK9 (% remaining) @ 0.1 μM” value is 70%, the “Enzyme degradation CDK9 (% remaining) @ 1 μM” value is on record as 10% and the “Enzyme degradation CDK9 (% remaining) @ 10 μM” value worked out at 10%.
In the case of `Cc1cccc(C(=O)N[C@H]2C[C@@H](n3cnc4c(NCc5cccc(OCCCN6CCN(C(=O)CNc7ccc8c(c7)C(=O)N([C@H]7CCC(=O)NC7=O)C8=O)CC6)c5)ncnc43)C2)n1` [Compound 102, N-((1s,3s)-3-(6-((3-(3-(4-((2-(2,6-dioxopiperidin-3-yl)-1,3-dioxoisoindolin-5-yl)glycyl)piperazin-1-yl)propoxy)benzyl)amino)-9H-purin-9-yl)cyclobutyl)-6-methylpicolinamide], on CDK2, the “Enzyme degradation CDK2 (% remaining) @ 0.1 μM” value came to 100%, the “Enzyme degradation CDK2 (% remaining) @ 1 μM” value is given as 70% and the “Enzyme degradation CDK2 (% remaining) @ 10 μM” value is reported as 70%. For the same compound, at CDK9, the “Enzyme degradation CDK9 (% remaining) @ 0.1 μM” value is 90%, the “Enzyme degradation CDK9 (% remaining) @ 1 μM” value is 20% and the “Enzyme degradation CDK9 (% remaining) @ 10 μM” value is 10%.
On to `O=C1CC[C@H](N2C(=O)c3ccc(N4CC(C(=O)N5CCC(CN6CCN(c7ccc(Nc8ncnc9c8ncn9C8CC(NC(=O)c9cccc(Cl)n9)C8)cc7)CC6)CC5)C4)cc3C2=O)C(=O)N1` (stereo partly drawn) [Compound 451, 6-chloro-N-((1s,3s)-3-(6-((4-(4-((1-(1-(2-(2,6-dioxopiperidin-3-yl)-1,3-dioxoisoindolin-5-yl)azetidin-3-carbonyl)piperidin-4-yl)methyl)piperazin-1-yl)phenyl)amino)-9H-purin-9-yl)cyclobutyl)picolinamide], for which, at CDK2, the “Enzyme degradation CDK2 (% remaining) @ 0.1 μM” value worked out at 50%, the “Enzyme degradation CDK2 (% remaining) @ 1 μM” value was determined as 30% and the “Enzyme degradation CDK2 (% remaining) @ 10 μM” value is 30%. In addition, on CDK9, the “Enzyme degradation CDK9 (% remaining) @ 0.1 μM” value was 0/0/0%, the “Enzyme degradation CDK9 (% remaining) @ 1 μM” value was 0/0/0% and the “Enzyme degradation CDK9 (% remaining) @ 10 μM” value was 0/0/0%.
With `O=C1CC[C@H](n2nnc3ccc(N4CCC(CN5CCN(c6ccc(Nc7ncnc8c7ncn8[C@H]7C[C@@H](NC(=O)c8cccc(C(F)(F)F)n8)C7)cc6)CC5)CC4)cc3c2=O)C(=O)N1` [Compound 424, N-((1s,3s)-3-(6-((4-(4-((1-(3-(2,6-dioxopiperidin-3-yl)-4-oxo-3,4-dihydrobenzo[d][1,2,3]triazin-6-yl)piperidin-4-yl)methyl)piperazin-1-yl)phenyl)amino)-9H-purin-9-yl)cyclobutyl)-6-(trifluoromethyl)picolinamide], on CDK2, the “Enzyme degradation CDK2 (% remaining) @ 0.1 μM” value was 10/10/10%, the “Enzyme degradation CDK2 (% remaining) @ 1 μM” value is 10/10/10% and the “Enzyme degradation CDK2 (% remaining) @ 10 μM” value is on record as 10/10/10%. Further, at CDK9, the “Enzyme degradation CDK9 (% remaining) @ 0.1 μM” value was 0/0/0%, the “Enzyme degradation CDK9 (% remaining) @ 1 μM” value is given as 0/0/0% and the “Enzyme degradation CDK9 (% remaining) @ 10 μM” value was 0/0/0%.
